Measured values published in patent US11174253B2, “Compound and pharmaceutical composition containing the same” (ALPHALA CO., LTD., priority 2017, dated 2021).

Test system: hepatocellular carcinoma cell line Hep3B
Experiment: Growth inhibition of Hep3B cells, 48 hr treatment, Hoechst 33342 nucleus count (GE InCell 2200)
Assay type: cell-based
Settings: Homo sapiens, Table 6, ratio of number of tumor cells treated with 10 μM compound to non-treated cells
In short: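 Compound exposure lasted 48 hr at 37° C, 5% CO2. Surviving nuclei were counted after Hoechst 33342 staining, and survival was expressed as the treated/non-treated cell number ratio, including the ratio at 10 μM compound.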

Compound	viability at 10 µM
CCOc1ccc(-c2nc(NC(=O)c3ccc([N+](=O)[O-])s3)sc2Br)cc1 [Compound 6-17, N-(5-bromo-4-(4-ethoxyphenyl)thiazol-2-yl)-5-nitrothiophene-2-carboxamide]	53%
CCOc1ccc(-c2nc(NC(=O)c3ccc([N+](=O)[O-])s3)sc2-c2ccc(C(F)(F)F)cc2)cc1 [Compound 6-19, N-(4-(4-ethoxyphenyl)-5-(4-(trifluoromethyl)phenyl)thiazol-2-yl)-5-nitrothiophene-2-carboxamide]	26%
CCOc1cc(-c2sc(NC(=O)c3ccc([N+](=O)[O-])s3)nc2-c2ccc(C)cc2)ccc1Br [Compound 6-20, N-(5-(4-bromo-3-ethoxyphenyl)-4-(p-tolyl)thiazol-2-yl)-5-nitrothiophene-2-carboxamide]	45%
CCCOc1ccc(-c2nc(NC(=O)c3ccc([N+](=O)[O-])s3)sc2N2CCN(C)CC2)cc1 [Compound 6-22, N-(5-(4-methylpiperazin-1-yl)-4-(4-propoxyphenyl)thiazol-2-yl)-5-nitrothiophene-2-carboxamide]	29%
CCCOc1ccc(-c2nc(NC(=O)c3ccc([N+](=O)[O-])s3)sc2C(=O)OCC)cc1 [Compound 6-23, ethyl 2-(5-nitrothiophene-2-carboxamido)-4-(4-propoxyphenyl)thiazole-5-carboxylate]	33%
CCOc1ccc(-c2nc(NC(=O)c3ccc([N+](=O)[O-])s3)sc2C(=O)Nc2cc(F)cc(F)c2)cc1 [Compound 6-27, N-(3,5-difluorophenyl)-4-(4-ethoxyphenyl)-2-(5-nitrothiophene-2-carboxamido)thiazole-5-carboxamide]	36%
CCOc1ccc(-c2nc(NC(=O)c3ccc([N+](=O)[O-])s3)sc2N(C)c2ccccc2)cc1 [Compound 6-28, N-(4-(4-ethoxyphenyl)-5-(methyl (phenyl)amino)thiazol-2-yl)-5-nitrothiophene-2-carboxamide]	31%
CCCOc1ccc(-c2nc(NC(=O)c3ccc([N+](=O)[O-])s3)sc2C(=O)N2CCOCC2)cc1 [Compound 6-29, N-(5-(morpholine-4-carbonyl)-4-(4-propoxyphenyl)thiazol-2-yl)-5-nitrothiophene-2-carboxamide]	58%
CCCOc1ccc(-c2nc(NC(=O)c3ccc([N+](=O)[O-])s3)sc2C(=O)N2CCN(C)CC2)cc1 [Compound 6-30, N-(5-(4-methylpiperazine-1-carbonyl)-4-(4-propoxyphenyl)thiazol-2-yl)-5-nitrothiophene-2-carboxamide]	58%
CCCOc1ccc(-c2nc(NC(=O)c3ccc([N+](=O)[O-])s3)sc2C(=O)Nc2ccc(F)cc2F)cc1 [Compound 6-31, N-(2,4-difluorophenyl)-2-(5-nitrothiophene-2-carboxamido)-4-(4-propoxyphenyl)thiazole-5-carboxamide]	61%
Cc1ccc(-c2nc(NC(=O)c3ccc([N+](=O)[O-])o3)sc2-c2ccc(Br)cc2)cc1 [Compound 6-32, N-(5-(4-bromophenyl)-4-(p-tolyl)thiazol-2-yl)-5-nitrofuran-2-carboxamide]	27%
CCOc1ccc(-c2nc(NC(=O)c3ccc([N+](=O)[O-])o3)sc2Cc2ccccc2)cc1 [Compound 6-33, N-(5-benzyl-4-(4-ethoxyphenyl)thiazol-2-yl)-5-nitrofuran-2-carboxamide]	27%
CCOc1ccc(-c2nc(NC(=O)c3ccc([N+](=O)[O-])s3)sc2Cc2ccc(F)cc2)cc1 [Compound 6-35, N-(4-(4-ethoxyphenyl)-5-(4-fluorobenzyl)thiazol-2-yl)-5-nitrothiophene-2-carboxamide]	47%
CCOc1ccc(-c2nc(NC(=O)c3ccc([N+](=O)[O-])s3)sc2Cc2cccc(F)c2)cc1 [Compound 6-36, N-(4-(4-ethoxyphenyl)-5-(3-fluorobenzyl)thiazol-2-yl)-5-nitrothiophene-2-carboxamide]	41%
CC(C)(C)c1ccc(-c2nc(NC(=O)c3ccc([N+](=O)[O-])s3)sc2Cc2ccc(F)cc2)cc1 [Compound 6-37, N-(4-(4-(tert-butyl)phenyl)-5-(4-fluorobenzyl)thiazol-2-yl)-5-nitrothiophene-2-carboxamide]	39%
CC(C)(C)c1ccc(-c2nc(NC(=O)c3ccc([N+](=O)[O-])s3)sc2-c2ccc(F)cc2F)cc1 [Compound 6-39, N-(4-(4-(tert-butyl)phenyl)-5-(2,4-difluorophenyl)thiazol-2-yl)-5-nitrothiophene-2-carboxamide]	31%
CC(C)(C)c1ccc(-c2nc(NC(=O)c3ccc([N+](=O)[O-])s3)sc2-c2cccc(F)c2)cc1 [Compound 6-41, N-(4-(4-(tert-butyl)phenyl)-5-(3-fluorophenyl)thiazol-2-yl)-5-nitrothiophene-2-carboxamide]	36%
CCOC(=O)c1sc(NC(=O)c2ccc([N+](=O)[O-])s2)nc1-c1ccc(C(C)(C)C)cc1 [Compound 6-42, ethyl 4-(4-(tert-butyl)phenyl)-2-(5-nitrothiophene-2-carboxamido)thiazole-5-carboxylate]	49%
CN1CCN(C(=O)c2sc(NC(=O)c3ccc([N+](=O)[O-])s3)nc2-c2ccc(C(C)(C)C)cc2)CC1 [Compound 6-43, N-(4-(4-(tert-butyl)phenyl)-5-(4-methylpiperazine-1-carbonyl)thiazol-2-yl)-5-nitrothiophene-2-carboxamide]	38%
CC(C)(C)c1ccc(-c2nc(NC(=O)c3ccc([N+](=O)[O-])s3)sc2C(=O)NC2CC2)cc1 [Compound 6-44, 4-(4-(tert-butyl)phenyl)-N-cyclopropyl-2-(5-nitrothiophene-2-carboxamido)thiazole-5-carboxamide]	81%
CC(C)(C)c1ccc(-c2nc(NC(=O)c3ccc([N+](=O)[O-])s3)sc2-c2ccccc2F)cc1 [Compound 6-48, N-(4-(4-(tert-butyl)phenyl)-5-(2-fluorophenyl)thiazol-2-yl)-5-nitrothiophene-2-carboxamide]	45%
CC(C)(C)c1ccc(-c2nc(NC(=O)c3ccc([N+](=O)[O-])s3)sc2C(=O)N2CCOCC2)cc1 [Compound 6-49, N-(4-(4-(tert-butyl)phenyl)-5-(morpholine-4-carbonyl)thiazol-2-yl)-5-nitrothiophene-2-carboxamide]	57%
CC(C)(C)c1ccc(-c2nc(NC(=O)c3ccc([N+](=O)[O-])s3)sc2C#N)cc1 [Compound 6-50, N-(4-(4-(tert-butyl)phenyl)-5-cyanothiazol-2-yl)-5-nitrothiophene-2-carboxamide]	53%
CC(C)(C)c1ccc(-c2nc(NC(=O)c3ccc([N+](=O)[O-])s3)sc2-c2cc(F)c(F)c(F)c2)cc1 [Compound 6-51, N-(4-(4-(tert-butyl)phenyl)-5-(3,4,5-trifluorophenyl)thiazol-2-yl)-5-nitrothiophene-2-carboxamide]	50%
CC(C)(C)c1ccc(-c2nc(NC(=O)c3ccc([N+](=O)[O-])s3)sc2-c2c(F)cc(F)cc2F)cc1 [Compound 6-52, N-(4-(4-(tert-butyl)phenyl)-5-(2,4,6-trifluorophenyl)thiazol-2-yl)-5-nitrothiophene-2-carboxamide]	37%
CC(C)(C)c1ccc(-c2nc(NC(=O)c3ccc([N+](=O)[O-])s3)sc2-c2ccccc2Cl)cc1 [Compound 6-55, N-(4-(4-(tert-butyl)phenyl)-5-(2-chlorophenyl)thiazol-2-yl)-5-nitrothiophene-2-carboxamide]	30%
CC(C)(C)c1ccc(-c2nc(NC(=O)c3ccc([N+](=O)[O-])s3)sc2-c2cccc(Cl)c2)cc1 [Compound 6-56, N-(4-(4-(tert-butyl)phenyl)-5-(3-chlorophenyl)thiazol-2-yl)-5-nitrothiophene-2-carboxamide]	28%
CC(C)(C)c1ccc(-c2nc(NC(=O)c3ccc([N+](=O)[O-])s3)sc2-c2ccccc2Br)cc1 [Compound 6-57, N-(5-(2-bromophenyl)-4-(4-(tert-butyl)phenyl)thiazol-2-yl)-5-nitrothiophene-2-carboxamide]	29%
CC(C)(C)c1ccc(-c2nc(NC(=O)c3ccc([N+](=O)[O-])s3)sc2-c2cccc(Br)c2)cc1 [Compound 6-58, N-(5-(3-bromophenyl)-4-(4-(tert-butyl)phenyl)thiazol-2-yl)-5-nitrothiophene-2-carboxamide]	32%
CC(C)(C)c1ccc(-c2nc(NC(=O)c3ccc([N+](=O)[O-])s3)sc2Br)cc1 [Compound 6-60, N-(5-bromo-4-(4-(tert-butyl)phenyl)thiazol-2-yl)-5-nitrothiophene-2-carboxamide]	45%
